Data taken from ChEMBL document CHEMBL5518244, “Design, Synthesis, and Biological Evaluation of a Novel NIK Inhibitor with Anti-Inflammatory and Hepatoprotective Effects for Sepsis Treatment” (J Med Chem, 2024).
The source made the active and inactive calls. The calls are words filed in the database; no cut-off is given here.

How the values were obtained:
[1] = Half life in C57BL/6J mouse at 10 mg/kg, iv measured upto 24 hrs by LC-MS/MS analysis; assay type: ADME, organism-based; settings: in vivo
Mus musculus [2] = test: Antisepsis effect in LPS-induced sepsis C57BL/6J mouse model assessed as prevention of liver injury by measuring decrease in serum ALT level at 10 mg/kg, ip measured after 7 days by biochemical assay; assay type: functional, organism-based; settings: time 7.0 day
Mus musculus [3] = test: Antisepsis effect in LPS-induced sepsis C57BL/6J mouse model assessed as decrease in serum IL-6 level at 10 mg/kg, ip measured after 7 days by ELISA; assay type: functional, organism-based; settings: time 7.0 day
RAW264.7 [4] = test: Anti-inflammatory activity in mouse RAW264.7 cells assessed as suppression of LPS/CD40-induced IL-1beta secretion at 5 uM pretreated for 2 hrs followed stimulated with LPS/CD40 for 22 hrs by ELISA; assay type: functional, cell-based; settings: time 24.0 hrs
[5] = molecular target: Mitogen-activated protein kinase 8 (Homo sapiens, UniProt P45983); test: Inhibition of JNK1 (unknown origin) by ADP-Glo Kinase assay
Chain of Mitogen-activated protein kinase 8 (P45983 whole entry): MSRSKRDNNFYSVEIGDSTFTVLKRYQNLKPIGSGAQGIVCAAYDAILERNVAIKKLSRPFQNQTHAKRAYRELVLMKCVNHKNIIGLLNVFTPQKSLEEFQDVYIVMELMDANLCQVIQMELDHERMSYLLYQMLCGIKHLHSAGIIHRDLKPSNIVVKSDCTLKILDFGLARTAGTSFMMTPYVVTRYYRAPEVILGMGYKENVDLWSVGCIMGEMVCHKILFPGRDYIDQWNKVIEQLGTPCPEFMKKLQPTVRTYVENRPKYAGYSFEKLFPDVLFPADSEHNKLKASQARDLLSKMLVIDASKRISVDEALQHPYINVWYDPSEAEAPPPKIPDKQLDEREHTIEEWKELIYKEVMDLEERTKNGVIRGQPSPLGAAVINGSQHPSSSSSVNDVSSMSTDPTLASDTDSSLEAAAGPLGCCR

RAW264.7 [6] = test: Cytotoxicity against mouse RAW264.7 cells assessed as cell viability at 1 uM by CCK8 assay; assay type: toxicity, cell-based; settings: raw264.7, 1 µM
[7] = Clearance in C57BL/6J mouse at 10 mg/kg, iv measured upto 24 hrs by LC-MS/MS analysis; assay type: ADME, organism-based; settings: in vivo
COS-7 [8] = test: Cytotoxicity against African green monkey COS-7 cells assessed as cell viability at 5 uM by CCK8 assay; assay type: toxicity, cell-based; settings: chlorocebus aethiops, cos-7, 5 µM
Mus musculus [9] = test: Antisepsis effect in LPS-induced sepsis C57BL/6J mouse model assessed as protection by measuring mouse survival at 10 mg/kg, ip measured after 7 days relative to control; assay type: functional, organism-based; settings: time 7.0 day
Mus musculus [10] = test: Antisepsis effect in LPS-induced sepsis C57BL/6J mouse model assessed as prevention of lung injury at 10 mg/kg, ip measured after 7 days by hematoxylin and eosin staining based assay; assay type: functional, organism-based; settings: time 7.0 day
Mus musculus [11] = test: Antisepsis effect in LPS-induced sepsis C57BL/6J mouse model assessed as prevention of kidney injury at 10 mg/kg, ip measured after 7 days by hematoxylin and eosin staining based assay; assay type: functional, organism-based; settings: time 7.0 day
Mus musculus [12] = test: Antisepsis effect in LPS-induced sepsis C57BL/6J mouse model assessed as protection by measuring mouse survival at 10 mg/kg, ip measured at 48 hrs relative to control; assay type: functional, organism-based
[13] = AUCinf in C57BL/6J mouse at 10 mg/kg, po measured upto 24 hrs by LC-MS/MS analysis; assay type: ADME, organism-based; settings: in vivo
Mus musculus [14] = test: Antisepsis effect in LPS-induced sepsis C57BL/6J mouse model assessed as prevention of tubular injury at 10 mg/kg, ip measured after 7 days by hematoxylin and eosin staining based assay; assay type: functional, organism-based; settings: time 7.0 day
[15] = molecular target: AMP-activated protein kinase (AMPK) alpha-1/beta-1/gamma-1 (Homo sapiens, UniProt P54619+Q13131+Q9Y478); test: Inhibition of AMPKalpha1/beta1/gamma1 (unknown origin) by ADP-Glo Kinase assay; assay type: protein-complex assay
Chain of AMP-activated protein kinase (AMPK) alpha-1/beta-1/gamma-1 (P54619 whole entry): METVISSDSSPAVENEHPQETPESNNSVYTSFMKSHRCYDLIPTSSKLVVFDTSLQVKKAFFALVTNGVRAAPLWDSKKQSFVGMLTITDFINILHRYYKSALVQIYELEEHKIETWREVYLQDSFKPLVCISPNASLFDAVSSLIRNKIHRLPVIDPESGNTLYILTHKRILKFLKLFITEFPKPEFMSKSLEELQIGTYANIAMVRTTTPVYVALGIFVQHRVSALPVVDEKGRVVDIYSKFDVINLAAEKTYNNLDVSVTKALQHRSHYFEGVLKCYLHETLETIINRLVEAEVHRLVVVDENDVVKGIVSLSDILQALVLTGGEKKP
Chain of AMP-activated protein kinase (AMPK) alpha-1/beta-1/gamma-1 (Q9Y478 whole entry): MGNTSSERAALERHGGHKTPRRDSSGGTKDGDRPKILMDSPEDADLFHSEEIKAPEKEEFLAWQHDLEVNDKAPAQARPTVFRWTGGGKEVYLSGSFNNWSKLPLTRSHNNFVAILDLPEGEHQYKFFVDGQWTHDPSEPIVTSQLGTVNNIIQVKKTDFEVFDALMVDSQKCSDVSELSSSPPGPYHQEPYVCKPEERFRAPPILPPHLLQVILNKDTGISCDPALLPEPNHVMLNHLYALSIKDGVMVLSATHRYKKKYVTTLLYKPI
Chain of AMP-activated protein kinase (AMPK) alpha-1/beta-1/gamma-1 (Q13131 whole entry): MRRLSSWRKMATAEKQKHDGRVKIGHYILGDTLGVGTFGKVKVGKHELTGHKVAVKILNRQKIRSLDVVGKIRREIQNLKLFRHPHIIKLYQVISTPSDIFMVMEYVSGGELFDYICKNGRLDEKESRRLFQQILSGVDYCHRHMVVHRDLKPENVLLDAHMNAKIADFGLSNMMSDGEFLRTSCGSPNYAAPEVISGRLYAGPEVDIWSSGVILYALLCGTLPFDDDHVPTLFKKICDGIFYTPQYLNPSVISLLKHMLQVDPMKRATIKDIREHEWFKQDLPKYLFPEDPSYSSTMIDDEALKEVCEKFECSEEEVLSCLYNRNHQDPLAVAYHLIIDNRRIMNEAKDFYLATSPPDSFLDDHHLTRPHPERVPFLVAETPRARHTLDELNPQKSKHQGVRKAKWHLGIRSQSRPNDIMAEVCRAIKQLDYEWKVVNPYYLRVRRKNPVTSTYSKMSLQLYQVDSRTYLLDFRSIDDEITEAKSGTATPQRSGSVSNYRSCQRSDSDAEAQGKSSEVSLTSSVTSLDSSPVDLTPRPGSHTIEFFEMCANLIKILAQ

[16] = Metabolic stability in rat liver microsomes assessed as half life at 1 uM measured upto 60 mins by LC-MS/MS analysis; assay type: ADME, Microsome
Mus musculus [17] = test: Inhibition of noncanonical NF-kappaB signaling pathway LPS-induced sepsis C57BL/6J mouse model assessed as decrease in p52 protein level at 10 mg/kg, ip measured after 7 days by immunoblotting analysis; assay type: functional, organism-based; settings: time 7.0 day
RAW264.7 [18] = test: Cytotoxicity against mouse RAW264.7 cells assessed as cell viability at 5 uM by CCK8 assay; assay type: toxicity, cell-based; settings: raw264.7, 5 µM
Mus musculus [19] = test: Antisepsis effect in LPS-induced sepsis C57BL/6J mouse model assessed as prevention of liver injury by measuring decrease in serum AST level at 10 mg/kg, ip measured after 7 days by biochemical assay; assay type: functional, organism-based; settings: time 7.0 day
[20] = Cmax in C57BL/6J mouse at 10 mg/kg, po measured upto 24 hrs by LC-MS/MS analysis; assay type: ADME, organism-based; settings: in vivo
[21] = Metabolic stability in mouse liver microsomes assessed as half life at 1 uM measured upto 60 mins by LC-MS/MS analysis; assay type: ADME, Microsome
RAW264.7 [22] = test: Anti-inflammatory activity in mouse RAW264.7 cells assessed as suppression of LPS/CD40-induced TNFalpha secretion at 5 uM pretreated for 2 hrs followed stimulated with LPS/CD40 for 22 hrs by ELISA; assay type: functional, cell-based; settings: time 24.0 hrs
Mus musculus [23] = test: Antisepsis effect in LPS-induced sepsis C57BL/6J mouse model assessed as decrease in serum CXCL-12 level at 10 mg/kg, ip measured after 7 days by ELISA; assay type: functional, organism-based; settings: time 7.0 day
[24] = Initial plasma concentration in C57BL/6J mouse at 10 mg/kg, iv measured upto 24 hrs by LC-MS/MS analysis; assay type: ADME, organism-based
Mus musculus [25] = test: Antisepsis effect in LPS-induced sepsis C57BL/6J mouse model assessed as decrease in serum IFN-gamma level at 10 mg/kg, ip measured after 7 days by ELISA; assay type: functional, organism-based; settings: time 7.0 day
[26] = Metabolic stability in mouse liver microsomes assessed as intrinsic clearance at 1 uM measured upto 60 mins by LC-MS/MS analysis; assay type: ADME, Microsome; settings: read-out: CLH
[27] = Tmax in C57BL/6J mouse at 10 mg/kg, po measured upto 24 hrs by LC-MS/MS analysis; assay type: ADME, organism-based; settings: in vivo
Mus musculus [28] = test: Antisepsis effect in LPS-induced sepsis C57BL/6J mouse model assessed as decrease in serum TNFalpha level at 10 mg/kg, ip measured after 7 days by ELISA; assay type: functional, organism-based; settings: time 7.0 day
RAW264.7 [29] = test: Anti-inflammatory activity in mouse RAW264.7 cells assessed as suppression of LPS/CD40-induced IL-6 secretion at 5 uM pretreated for 2 hrs followed stimulated with LPS/CD40 for 22 hrs by ELISA; assay type: functional, cell-based; settings: time 24.0 hrs
Mus musculus [30] = test: Antisepsis effect in LPS-induced sepsis C57BL/6J mouse model assessed as prevention of infiltration of inflammatory cells at 10 mg/kg, ip measured after 7 days by immunohistochemistry staining of F4/80 imaging based assay; assay type: functional, organism-based; settings: time 7.0 day
Mus musculus [31] = test: Antisepsis effect in LPS-induced sepsis C57BL/6J mouse model assessed as decrease in serum IL-1beta level at 10 mg/kg, ip measured after 7 days by ELISA; assay type: functional, organism-based; settings: time 7.0 day
Mus musculus [32] = test: Antisepsis effect in LPS-induced sepsis C57BL/6J mouse model assessed as prevention of necrosis in liver tissue at 10 mg/kg, ip measured after 7 days by hematoxylin and eosin staining based assay; assay type: functional, organism-based; settings: time 7.0 day
Mus musculus [33] = test: Antisepsis effect in LPS-induced sepsis C57BL/6J mouse model assessed as prevention of liver injury by measuring decrease in serum AKP level at 10 mg/kg, ip measured after 7 days by biochemical assay; assay type: functional, organism-based; settings: time 7.0 day
[34] = Metabolic stability in rat liver microsomes assessed as intrinsic clearance at 1 uM measured upto 60 mins by LC-MS/MS analysis; assay type: ADME, Microsome; settings: read-out: CLH
[35] = molecular target: T1, Mitogen-activated protein kinase kinase kinase 14 (Homo sapiens, UniProt Q99558); test: Inhibition of NIK (unknown origin) incubated 30 to 60 mins by ADP-Glo Kinase
T1 sequence (Q99558 whole entry): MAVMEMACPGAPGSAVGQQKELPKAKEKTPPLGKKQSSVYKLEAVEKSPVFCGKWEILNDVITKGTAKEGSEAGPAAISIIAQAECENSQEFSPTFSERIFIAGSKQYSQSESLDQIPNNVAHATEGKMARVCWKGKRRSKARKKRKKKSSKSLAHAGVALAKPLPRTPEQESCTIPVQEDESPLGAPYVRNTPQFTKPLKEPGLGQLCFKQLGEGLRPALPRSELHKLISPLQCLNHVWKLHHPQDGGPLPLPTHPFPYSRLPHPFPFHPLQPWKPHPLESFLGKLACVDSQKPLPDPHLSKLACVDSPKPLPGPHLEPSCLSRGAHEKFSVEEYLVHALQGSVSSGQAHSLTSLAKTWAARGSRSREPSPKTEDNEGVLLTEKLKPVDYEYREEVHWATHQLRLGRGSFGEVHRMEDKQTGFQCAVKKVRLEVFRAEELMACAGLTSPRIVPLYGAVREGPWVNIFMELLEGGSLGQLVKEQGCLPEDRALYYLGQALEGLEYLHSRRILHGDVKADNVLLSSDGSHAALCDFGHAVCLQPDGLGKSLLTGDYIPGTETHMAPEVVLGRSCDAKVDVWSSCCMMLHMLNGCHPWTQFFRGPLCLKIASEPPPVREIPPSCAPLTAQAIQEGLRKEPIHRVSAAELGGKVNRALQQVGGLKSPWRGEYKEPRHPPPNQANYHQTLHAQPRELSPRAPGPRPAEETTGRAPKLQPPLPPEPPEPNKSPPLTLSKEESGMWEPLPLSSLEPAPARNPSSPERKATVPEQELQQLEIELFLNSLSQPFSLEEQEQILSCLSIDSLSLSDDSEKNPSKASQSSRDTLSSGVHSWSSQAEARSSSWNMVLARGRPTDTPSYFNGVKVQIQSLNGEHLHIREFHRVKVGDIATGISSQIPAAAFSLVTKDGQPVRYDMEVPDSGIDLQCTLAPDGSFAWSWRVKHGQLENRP

[36] = AUClast in C57BL/6J mouse at 10 mg/kg, iv measured upto 24 hrs by LC-MS/MS analysis; assay type: ADME, organism-based; settings: in vivo
Mus musculus [37] = test: Inhibition of noncanonical NF-kappaB signaling pathway LPS-induced sepsis C57BL/6J mouse model assessed as increase in p100 protein level at 10 mg/kg, ip measured after 7 days by immunoblotting analysis; assay type: functional, organism-based; settings: time 7.0 day
Macrophage = test: Anti-inflammatory activity in mouse macrophages extracted from abdominal activity assessed as inhibition of LPS-induced nitric oxide production at 1 uM measured after 22 hrs by Griess reagent assay relative to control; assay type: functional, cell-based
[38] = molecular target: T1, Mitogen-activated protein kinase kinase kinase 14; test: Inhibition of NIK (unknown origin) expressed in COS-7 cells co-expressing NF-KappaB luciferase reporter assessed as suppression of luciferase reporter measured after 24 by beta-Gal activity assay; assay type: cell-based
[39] = Half life in C57BL/6J mouse at 10 mg/kg, po measured upto 24 hrs by LC-MS/MS analysis; assay type: ADME, organism-based; settings: in vivo
COS-7 [40] = test: Cytotoxicity against African green monkey COS-7 cells assessed as cell viability at 1 uM by CCK8 assay; assay type: toxicity, cell-based; settings: chlorocebus aethiops, cos-7, 1 µM
[41] = AUClast in C57BL/6J mouse at 10 mg/kg, po measured upto 24 hrs by LC-MS/MS analysis; assay type: ADME, organism-based; settings: in vivo
[42] = AUCinf in C57BL/6J mouse at 10 mg/kg, iv measured upto 24 hrs by LC-MS/MS analysis; assay type: ADME, organism-based; settings: in vivo

half-life [1]: 44.5 min
IC50 [5]: 541 µM
clearance [7]: 56.2 mL/min/kg
AUC(0-inf) [13]: 2550 ng·h/mL
IC50 [15]: 288 µM
half-life at 1 µM [16]: 25.9 min
Cmax [20]: 1280 ng/mL
half-life at 1 µM [21]: 19.5 min
C0 at 24 h [24]: 5060 ng/mL
microsomal CLint at 1 µM [26]: 71 µL/min/mg
Tmax [27]: 30 min
microsomal CLint at 1 µM [34]: 53.6 µL/min/mg
IC50 [35]: 0.00127 µM
AUC(0-t) at 24 h [36]: 3020 ng·h/mL
IC50 (Macrophage): 78.1 µM
IC50 [38]: 1.19 µM
half-life [39]: 136 min
AUC(0-t) at 24 h [41]: 2520 ng·h/mL
AUC(0-inf) [42]: 3020 ng·h/mL
Compound: COc1cc(Nc2nccc(N3CCCn4nc(C#C[C@@](C)(O)c5nccs5)cc43)n2)cc(OC)c1
Activity (Mus musculus [2]): Active
Activity (Mus musculus [3]): Active
Activity (RAW264.7 [4]): Active
Activity (RAW264.7 [6]): Non-Toxic
Activity (COS-7 [8]): Non-Toxic
Activity (Mus musculus [9]): Active
Activity (Mus musculus [10]): Active
Activity (Mus musculus [11]): Active
Activity (Mus musculus [12]): Active
Activity (Mus musculus [14]): Active
Activity (Mus musculus [17]): Active
Activity (RAW264.7 [18]): Non-Toxic
Activity (Mus musculus [19]): Active
Activity (RAW264.7 [22]): Active
Activity (Mus musculus [23]): Active
Activity (Mus musculus [25]): Active
Activity (Mus musculus [28]): Active
Activity (RAW264.7 [29]): Active
Activity (Mus musculus [30]): Active
Activity (Mus musculus [31]): Active
Activity (Mus musculus [32]): Active
Activity (Mus musculus [33]): Active
Activity (Mus musculus [37]): Active
Activity (COS-7 [40]): Non-Toxic
